Source: article PMC10313808, “Lipoxygenase inhibitory synthetic derivatives of methyl gallate regulate gene expressions of COX-2 and cytokines to reduce animal model arthritis” (Scientific Reports, 2023)
Read-outs that look alike come from different tables or passages of the source.

Assays:
[1] = target: T1, LOX (Glycine max, UniProt P08170); assay: Fluorescence quenching studies; assay type: binding; settings: 296 K, pH 9
T1 construct: purchased Sigma (Sigma-Aldrich, UK)
T1 sequence (P08170 1-839): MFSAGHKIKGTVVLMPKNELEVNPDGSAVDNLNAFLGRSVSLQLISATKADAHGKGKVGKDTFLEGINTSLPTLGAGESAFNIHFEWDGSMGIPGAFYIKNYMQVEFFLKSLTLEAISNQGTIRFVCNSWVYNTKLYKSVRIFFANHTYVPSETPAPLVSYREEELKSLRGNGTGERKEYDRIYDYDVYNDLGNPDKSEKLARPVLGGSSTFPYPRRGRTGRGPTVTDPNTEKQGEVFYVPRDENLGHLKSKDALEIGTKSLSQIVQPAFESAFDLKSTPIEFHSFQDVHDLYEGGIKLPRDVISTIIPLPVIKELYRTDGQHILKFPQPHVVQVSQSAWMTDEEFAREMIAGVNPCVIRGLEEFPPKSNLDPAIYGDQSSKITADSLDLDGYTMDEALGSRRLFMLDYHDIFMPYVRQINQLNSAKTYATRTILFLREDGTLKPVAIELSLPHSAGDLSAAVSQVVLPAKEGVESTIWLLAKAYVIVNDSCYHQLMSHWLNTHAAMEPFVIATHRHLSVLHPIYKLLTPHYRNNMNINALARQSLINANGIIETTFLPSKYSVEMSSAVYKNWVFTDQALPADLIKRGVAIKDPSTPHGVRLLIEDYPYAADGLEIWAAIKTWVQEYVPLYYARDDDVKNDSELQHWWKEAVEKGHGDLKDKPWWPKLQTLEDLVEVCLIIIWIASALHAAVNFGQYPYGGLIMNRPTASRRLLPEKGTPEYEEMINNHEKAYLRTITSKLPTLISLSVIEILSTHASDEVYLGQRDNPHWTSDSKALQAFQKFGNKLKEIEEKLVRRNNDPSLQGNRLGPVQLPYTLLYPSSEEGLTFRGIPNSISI
From the text: To analyze the type of mechanism, the data of fluorescence of LOX was plotted, as relative fluorescence intensity (F0/F), against MGSDs. Here F and F0 are the fluorescence intensity in the presence and absence of MGSDs respectively. The Stern–Volmer constants were obtained from the plot by linear regression using the expression: F0/F=1+KsvQ.
Ksv is the Stern–Volmer constant and [Q] is the respective concentration of derivatives. Ksv which depicts the binding affinity between the fluorophore (protein) and quencher (ligand), were obtained from the slopes of the plot (Supplementary Fig. 15). […] The Fluorescence quenching data provided information about the binding constant (K), the number of binding sites (n), and the values could be arrived by applying the equation. Log F0-F/F=log K+nlogQ.
The Fluoromax-4 spectrophotometer (Spectra-NanoLED source 278) was used for studying fluorescence quenching of the compound. Bandwidth set at 5 nm for both excitation and emission spectra. The wavelength was set for excitation at 280 nm and the emission was recorded at 290–450 nm using 1.0 cm cell at 296 K temperature. The LOX with a concentration of 7 μM, dissolved in borate buffer at pH 9 and ligands at the concentrations of 35, 70, 105, 140, 175, 210, 245 and 280 μM were used for the experiment.

[2] = system: FCA-induced arthritis; settings: for ALP / SGOT / SGPT: FCA rats, serum; for liver damage: rat, in vivo
Procedure: Chronic inflammation induced by Freund's Complete Adjuvant contains a suspension of heat-killed Mycobacterium tuberculosis in the vehicle (Chondrex, Labex Corporation). 100 μL of FCA (10 mg/mL) was injected intradermally to the left-hand paw of SD rats[42]. […] Induction of inflammation became chronic by 9–12 days and then rats were divided into 7 groups having 6 rats in each group. Everything possible was done to minimize the suffering of experimental animals. Minimum number of rats only were drafted to generate reliable data. 42 rats were randomly allocated into seven groups (6 × 7).
Group I (n = 6) served as normal rats that received an equal volume of vehicle control. Group II (n = 6) was arthritic model control treated with vehicle only. Group III (n = 6) was arthritic control which received the diclofenac (10 mg.kg^–1). Groups IV (n = 6), V (n = 6), VI (n = 6) and VII (n = 6) were treated with a low and high dose of methyl gallate (20 mg.kg^–1, 40 mg.kg^–1) and MGSD 1 (1 mg.kg^–1, 10 mg.kg^–1). The drugs were orally administered through oral gavage daily in PBS vehicle for 28 days.
Blood was drawn from jugular vein[43] and collected in heparinized tubes and used for further analysis. By using Horiba 5-part hematology analyzer the blood parameters like RBC, WBC, neutrophil and hemoglobin were analyzed. Serum parameters were analyzed using Stat Fax autoanalyzer. Serum glutamic pyruvic transaminase (SGPT), serum glutamic oxaloacetic transaminase (SGOT) and alkaline phosphatase (ALP) were determined using standard diagnostic kits (Proton, Accurex).

[3] = target: T2, Lipoxidase from Glycine max (15- LOX) (Glycine max, UniProt P08170); assay: In-vitro LOX enzyme inhibition assay (spectrophotometric, 234 nm); assay type: biochemical
T2 construct: purchased Sigma (Sigma-Aldrich, UK)
T2 sequence (P08170 1-839): T1 sequence (P08170 1-839)
Procedure: The LOX inhibition assays were performed with MGSDs. The inhibitory activity was measured by a modified spectrophotometric method[16],[39]. The plant LOX pathway is in many respects equivalent to the ‘arachidonic acid cascades’ in animals. For this reason, the in vitro inhibition of LOX constitutes a good model for the screening of compounds with anti-inflammatory potential[40],[41]. LOX (Lipoxidase from Glycine max (15- LOX); EC 1.13.11.12) type I-B (Soybean), and linoleic acid were purchased from Sigma (Sigma-Aldrich, UK) and used without further purification. Enzyme solution of 1.03 µM was prepared in 0.2 mM borate buffer, pH 8.5. The substrate, linoleic acid solution of 0.3 mM was also prepared in the borate buffer at the same pH. […] The final concentration of MGSDs used for the analysis was 20 µM. The assay mixture was made of 50 µL of LOX, 50 µL of the test solution and 360 µL of the substrate. The final volume was made up to 2 mL with corresponding borate buffer quantity. The activity of LOX was measured on the formation of […], which was monitored at 234 nm on spectrophotometer, (HITACHI U 2900, Japan). The same procedure was repeated with triplicate for the confirmation of LOX inhibitory activity[16],[39].

Structure (SMILES)	Kd ([1]; read-out: Binding constant (K) (converted)) [µM]	Quenching constant (Ksv) ([1]; Stern–Volmer) [M⁻¹]	ALP ([2]; 1 mg.kg^−1 oral)	SGOT ([2]; 1 mg.kg^−1 oral) [IU/L]	SGPT ([2]; 1 mg.kg^−1 oral) [IU/L]	ALP ([2]; 10 mg.kg^−1 oral)	SGOT ([2]; 10 mg.kg^−1 oral) [IU/L]	SGPT ([2]; 10 mg.kg^−1 oral) [IU/L]	liver damage [2]	inhibition at 20 µM ([3]; 20 μM compound) [%]	SGOT ([2]; 20 mg.kg^−1 oral) [IU/L]	SGPT ([2]; 20 mg.kg^−1 oral) [IU/L]	SGOT ([2]; 40 mg.kg^−1 oral) [IU/L]	SGPT ([2]; 40 mg.kg^−1 oral) [IU/L]	inhibition at 200 µM ([3]; 0.2 mM compound) [%]
O=C(O)COc1cc(C(=O)O)cc(OCC(=O)O)c1OCC(=O)O [MGSD 1, 2,2′,2″-((5-carboxybenzene-1,2,3-triyl)tris(oxy)) tri acetic acid]	752	6200	435 ± 72.16	162 ± 7.57	85 ± 2.60	309 ± 54.42	179 ± 3.52	82 ± 1.73	did not show any liver damage	70 ± 3.45					
COC(=O)c1cc(O)c(O)c(O)c1 [Methyl gallate]									did not show any liver damage		243 ± 13.28	94 ± 3.17	183 ± 6.38	102 ± 2.18	61 ± 1.35
